Here are results for twelve molecules from patent US7119049B2, “Oxathiinecarboxamides” (Bayer Cropscience AG, priority 2002, dated 2006).

The term chromatographic logP denotes lipophilicity estimated from chromatographic retention.

The nature of data set [1]: logP determination by HPLC (reversed-phase C 18), acidic range. It is filed as physicochemical. The following applies: pH 2.3, HPLC reversed-phase C 18, 43° C., 0.1% aqueous phosphoric acid/acetonitrile. As to the method: The logP values given in the Preparation Examples were determined in accordance with EEC Directive 79/831 Annex V.A8 by HPLC (High Performance Liquid Chromatography) using a reversed-phase column (C 18). Temperature: 43° C.
Mobile phases for the determination in the acidic range: 0.1% aqueous phosphoric acid, acetonitrile; linear gradients from 10% acetonitrile to 90% acetonitrile.
Calibration was carried out using unbranched alkan-2-ones (having 3 to 16 carbon atoms) with known logP values (determination of the logP values by the retention times using linear interpolation between two successive alkanones).

The test system of the next data set is Podosphaera leucotricha. Nature of the data set: Podosphaera Test (Apple)/protective. The format is in vivo. The following applies: 240 h, read-out: Efficacy in %. As to the method:
Podosphaera Test (Apple)/Protective
• Solvents: 24.5 Parts by weight of acetone 24.5 Parts by weight of dimethylacetamide • Emulsifier: 1.0 Part by weight of alkylaryl polyglycol ether
(§1) To produce a suitable preparation of active compound, 1 part by weight of active compound is mixed with the stated amount of solvent and emulsifier, and the concentrate is diluted with water to the desired concentration.
To test for protective activity, young plants are sprayed with the preparation of active compound at the stated application rate. After the spray coating has dried on, the plants are inoculated with an aqueous spore suspension of the apple mildew pathogen Podosphaera leucotricha. The plants are then placed in a greenhouse at about 23° C. and a relative atmospheric humidity of about 70%.
(§2) Evaluation is carried out 10 days after the inoculation. 0% means an efficacy which corresponds to that of the control, whereas an efficacy of 100% means that no infection is observed.

A further data set relates to Venturia inaequalis. Nature of the data set: Venturia Test (Apple)/protective. It is filed as in vivo. The following applies: 240 h, read-out: Efficacy in %. The protocol: (§3) To produce a suitable preparation of active compound, 1 part by weight of active compound is mixed with the stated amounts of solvent and emulsifier, and the concentrate is diluted with water to the desired concentration.
To test for protective activity, young plants are sprayed with the preparation of active compound at the stated application rate. After the spray coating has dried on, the plants are inoculated with an aqueous conidia suspension of the apple scab pathogen Venturia inaequalis and then remain in an incubation cabin at about 20° C. and 100% relative atmospheric humidity for 1 day.
The plants are then placed in a greenhouse at about 21° C. and a relative atmospheric humidity of about 90%.
as §2

A further data set relates to Alternaria solani. Nature of the data set: Alternaria Test (Tomato)/protective. The following applies: 48 h, read-out: Efficacy in %. The format is in vivo. The protocol: as §3
To test for protective activity, young tomato plants are sprayed with the preparation of active compound at the stated application rate. 1 day after the treatment, the plants are inoculated with an aqueous spore suspension of Alternaria solani. The plants are then placed in an incubation cabin at about 20° C. and 100% relative atmospheric humidity.
Evaluation is carried out 2 days after the inoculation. 0% means an efficacy which corresponds to that of the control, whereas an efficacy of 100% means that no infection is observed.

Another data set has as its system Puccinia recondita. As to the kind of experiment: Puccinia Test (Wheat)/protective. The format is in vivo. Conditions: protective, 500 g/ha, evaluation 10 days after inoculation. As to the method: as §3
To test for protective activity, young plants are sprayed with the preparation of active compound at the stated application rate. After the spray coating has dried on, the plants are sprayed with a conidia suspension of Puccinia recondita. The plants remain in an incubation cabin at 20° C. and 100% relative atmospheric humidity for 48 hours.
The plants are then placed in a greenhouse at a temperature of about 20° C. and a relative atmospheric humidity of about 80% to promote the development of rust pustules.
as §2

A further data set concerns Pyrenophora teres. As to the kind of experiment: Pyrenophora teres Test (Barley)/protective. It is filed as in vivo. Conditions: protective, 500 g/ha, evaluation 7 days after inoculation. The protocol:
as §1
To test for protective activity, young plants are sprayed with the preparation of active compound at the stated application rate. After the spray coating has dried on, the plants are sprayed with a conidia suspension of Pyrenophora teres. The plants remain in an incubation cabin at 20° C. and 100% relative atmospheric humidity for 48 hours.
The plants are then placed in a greenhouse at temperature of about 20° C. and a relative atmospheric humidity of about 80%.
Evaluation is carried out 7 days after the inoculation. 0% means an efficacy which corresponds to that of the control, whereas an efficacy of 100% means that no infection is observed.

Molecules are shown by their SMILES. Where two headings read alike, the source gives them in different places.

As for `CC1=C(C(=O)Nc2ccccc2-c2ccc(Cl)cc2F)SCCO1` [Example 1, N-(4′-chloro-2′-fluoro-1,1′-biphenyl-2-yl)-2-methyl-5,6-dihydro-1,4-oxathiine-3-carboxamide], the chromatographic logP in data set [1] (reversed-phase C18 HPLC column) was found to be 3.61. For the same molecule, the pest or weed control at 100 g/ha with Podosphaera leucotricha (apple, protective, application rate 100 g/ha, evaluation 10 days after inoculation) was determined as 99%; in the data set on Venturia inaequalis (apple, protective, 100 g/ha, evaluation 10 days after inoculation), 100%; in the data set with Alternaria solani (tomato, protective, 100 g/ha, evaluation 2 days after inoculation), 94%.

`CC1=C(C(=O)Nc2ccccc2-c2ccc(Cl)c(Cl)c2)SCCO1` [Example 6] had a chromatographic logP in data set [1] of 4.02. The pest or weed control at 100 g/ha in the data set with Podosphaera leucotricha, in the data set with Venturia inaequalis and with Alternaria solani was 100% throughout. In the data set on Puccinia recondita, this molecule returned an Efficacy in % of 100%.

On to `CC1=C(C(=O)Nc2ccccc2-c2ccc(Cl)cc2Cl)SCCO1` [Example 7], for which the pest or weed control at 100 g/ha was 100% in the data set on Podosphaera leucotricha, 100% in the data set with Venturia inaequalis and 98% with Alternaria solani.

The molecule `CC1=C(C(=O)Nc2ccccc2-c2ccc(Cl)cc2C)SCCO1` [Example 8] registered a chromatographic logP in data set [1] of 4.26. In addition, the pest or weed control at 100 g/ha in the data set on Podosphaera leucotricha amounted to 96%; in the data set on Venturia inaequalis it was 99%; in the data set with Alternaria solani, 94%.

Consider `CC1=C(C(=O)Nc2ccccc2-c2ccc(Cl)c(F)c2)SCCO1` [Example 9], for which the chromatographic logP in data set [1] stood at 3.67. The pest or weed control at 100 g/ha in the data set on Podosphaera leucotricha, in the data set with Venturia inaequalis and with Alternaria solani was 100% throughout. For the same molecule, the values for the Efficacy in % in the data set on Pyrenophora teres and in the data set on Puccinia recondita were 95% and 100%, respectively.

As for `CC1=C(C(=O)Nc2ccccc2-c2ccc(F)c(Cl)c2)SCCO1` [Example 10], in data set [1], the chromatographic logP is 3.7. Besides, the pest or weed control at 100 g/ha in the data set with Podosphaera leucotricha stood at 93%; in the data set with Venturia inaequalis, 100%; in the data set on Alternaria solani it was 94%.

In turn, `CC1=C(C(=O)Nc2ccccc2-c2ccc(F)c(F)c2)SCCO1` [Example 12] came in with a chromatographic logP in data set [1] of 3.38. For the same molecule, the pest or weed control at 100 g/ha worked out at 100% with Venturia inaequalis and 95% with Alternaria solani.

The molecule `CC1=C(C(=O)Nc2ccccc2-c2ccc(Cl)c(C(F)(F)F)c2)SCCO1` [Example 13] gave a chromatographic logP in data set [1] of 4.03. The pest or weed control at 100 g/ha was determined as 99% with Venturia inaequalis and 94% with Alternaria solani.

`CC1=C(C(=O)Nc2ccccc2-c2ccc(Cl)c(C)c2)SCCO1` [Example 15]: the chromatographic logP in data set [1] was 4.17. In addition, the pest or weed control at 100 g/ha stood at 98% in the data set on Podosphaera leucotricha, 100% with Venturia inaequalis and 96% in the data set on Alternaria solani.

In data set [1], `CC1=C(C(=O)Nc2c(F)cccc2-c2ccc(Cl)c(Cl)c2)SCCO1` [Example 16] displayed a chromatographic logP of 3.53. Further, the figures for the pest or weed control at 100 g/ha in the data set on Podosphaera leucotricha, in the data set with Venturia inaequalis and in the data set on Alternaria solani were 90%, 100% and 95%, respectively.

The molecule `CC1=C(C(=O)Nc2ccccc2-c2ccc(Cl)cc2)SCCO1` [Example 17] came in with a chromatographic logP in data set [1] of 3.69. For the same molecule, the pest or weed control at 100 g/ha with Venturia inaequalis and with Alternaria solani was 93% throughout. In addition, the Efficacy in % in the data set with Pyrenophora teres was determined as 100%.

In data set [1], `CC1=C(C(=O)Nc2ccccc2-c2ccc(C#N)cc2)SCCO1` [Example 19] returned a chromatographic logP of 2.74. For the same molecule, the Efficacy in % in the data set on Pyrenophora teres was found to be 93%.
